From patent publication US20200032271A1, “COMBINATION THERAPY WITH LIPOSOMAL ANTISENSE OLIGONUCLEOTIDES” (Bio-Path Holdings, Inc., priority 2016, published 2020)
“And” between values parts separate entries of the source, which are not always exact repeats. Identical values can stand only once. Marks after values point to notes of the source that are not given here. [PEt] = P-ethoxy (ethyl phosphotriester) internucleoside linkage

Assay: Adverse events in study 2003-0578 (NCI CTCAE grading)
[1] = patient 1, 5 mg/m^2 monotherapy
[2] = patient 10, 5 mg/m^2 monotherapy

## BP1001: liposome-incorporated P-ethoxy antisense oligodeoxynucleotide (5′-ATATTTGGCGATGGCTTC-3′, SEQ ID NO: 1) specific to grb2 mRNA, in neutral DOPC liposomes (DNA, all [PEt], methylation of C not given here; incorporated in neutral DOPC liposomes)
Monotherapy 10 mg/m^2 (n = 6)
  Hypovolemia ≥Grade 3, number of patients: 0
  Hypoxia ≥Grade 3, number of patients: 1
  Investigations ≥Grade 3, number of patients: 0
  Leukocytosis ≥Grade 3, number of patients: 2
  Metabolism and nutritional disorders ≥Grade 3, number of patients: 3
  Multi-organ failure ≥Grade 3, number of patients: 1
  Neoplasms benign, malignant, and unspecified (incl. cysts and polyps) ≥Grade 3, number of patients: 1
  Patients with AEs ≥Grade 3, number of patients: 4
  Penile Pain ≥Grade 3, number of patients: 0
  Platelet count decreased ≥Grade 3, number of patients: 0
  Pneumonia ≥Grade 3, number of patients: 2
  Psychiatric disorders ≥Grade 3, number of patients: 0
  Renal and urinary disorders ≥Grade 3, number of patients: 0
  Reproductive system and breast disorders ≥Grade 3, number of patients: 0
  Respiratory distress ≥Grade 3, number of patients: 2
  Respiratory failure ≥Grade 3, number of patients: 1
  Respiratory, thoracic, and mediastinal disorders ≥Grade 3, number of patients: 3
  Tumor lysis syndrome ≥Grade 3, number of patients: 0
  Vascular disorders ≥Grade 3, number of patients: 0
Monotherapy 20 mg/m^2 (n = 3)
  AML progression, number of patients: 1
  Abdominal Pain ≥Grade 3, number of patients: 0
  Acidosis ≥Grade 3, number of patients: 0
  Acute kidney injury ≥Grade 3, number of patients: 0
  Asthenia ≥Grade 3, number of patients: 0
  Back Pain ≥Grade 3, number of patients: 0
  Blood and lymphatic system disorders ≥Grade 3, number of patients: 1
  Cardiac disorders ≥Grade 3, number of patients: 0
  Cataract ≥Grade 3, number of patients: 0
  Dyspnea ≥Grade 3, number of patients: 0
  Extremity Lower Edema ≥Grade 3, number of patients: 0
  Eye disorders ≥Grade 3, number of patients: 0
  Febrile neutropenia ≥Grade 3, number of patients: 0
  Gastrointestinal disorders ≥Grade 3, number of patients: 0
  General disorders and administration site conditions ≥Grade 3, number of patients: 0
  Hallucinations ≥Grade 3, number of patients: 0
  Heart failure ≥Grade 3, number of patients: 0
  Hepatic failure ≥Grade 3, number of patients: 0
  Hepatobiliary disorders ≥Grade 3, number of patients: 0
  Hypocalcemia ≥Grade 3, number of patients: 0
  Hypoglycemia ≥Grade 3, number of patients: 0
  Hypokalemia ≥Grade 3, number of patients: 0
  Hyponatremia ≥Grade 3, number of patients: 0
  Hypotension ≥Grade 3, number of patients: 0
  Hypovolemia ≥Grade 3, number of patients: 0
  Hypoxia ≥Grade 3, number of patients: 0
  Investigations ≥Grade 3, number of patients: 0
  Leukocytosis ≥Grade 3, number of patients: 1
  Metabolism and nutritional disorders ≥Grade 3, number of patients: 0
  Multi-organ failure ≥Grade 3, number of patients: 0
  Musculoskeletal and connective tissue disorders ≥Grade 3, number of patients: 0
  Neoplasms benign, malignant, and unspecified (incl. cysts and polyps) ≥Grade 3, number of patients: 0
  Patients with AEs ≥Grade 3, number of patients: 1
  Penile Pain ≥Grade 3, number of patients: 0
  Platelet count decreased ≥Grade 3, number of patients: 0
  Pneumonia ≥Grade 3, number of patients: 0
  Psychiatric disorders ≥Grade 3, number of patients: 0
  Renal and urinary disorders ≥Grade 3, number of patients: 0
  Reproductive system and breast disorders ≥Grade 3, number of patients: 0
  Respiratory distress ≥Grade 3, number of patients: 0
  Respiratory failure ≥Grade 3, number of patients: 0
  Respiratory, thoracic, and mediastinal disorders ≥Grade 3, number of patients: 0
  Tumor lysis syndrome ≥Grade 3, number of patients: 0
  Vascular disorders ≥Grade 3, number of patients: 0
Monotherapy 40 mg/m^2 (n = 3)
  AML progression, number of patients: 3
  Abdominal Pain ≥Grade 3, number of patients: 0
  Acidosis ≥Grade 3, number of patients: 0
  Acute kidney injury ≥Grade 3, number of patients: 1
  Asthenia ≥Grade 3, number of patients: 0
  Back Pain ≥Grade 3, number of patients: 0
  Blood and lymphatic system disorders ≥Grade 3, number of patients: 1
  Cardiac disorders ≥Grade 3, number of patients: 0
  Cataract ≥Grade 3, number of patients: 0
  Dyspnea ≥Grade 3, number of patients: 1
  Extremity Lower Edema ≥Grade 3, number of patients: 0
  Eye disorders ≥Grade 3, number of patients: 0
  Febrile neutropenia ≥Grade 3, number of patients: 0
  Gastrointestinal disorders ≥Grade 3, number of patients: 0
  General disorders and administration site conditions ≥Grade 3, number of patients: 0
  Hallucinations ≥Grade 3, number of patients: 0
  Heart failure ≥Grade 3, number of patients: 0
  Hepatic failure ≥Grade 3, number of patients: 0
  Hepatobiliary disorders ≥Grade 3, number of patients: 0
  Hypocalcemia ≥Grade 3, number of patients: 0
  Hypoglycemia ≥Grade 3, number of patients: 0
  Hypokalemia ≥Grade 3, number of patients: 1
  Hyponatremia ≥Grade 3, number of patients: 0
  Hypotension ≥Grade 3, number of patients: 0
  Hypovolemia ≥Grade 3, number of patients: 0
  Hypoxia ≥Grade 3, number of patients: 0
  Investigations ≥Grade 3, number of patients: 0
  Leukocytosis ≥Grade 3, number of patients: 1
  Metabolism and nutritional disorders ≥Grade 3, number of patients: 1
  Multi-organ failure ≥Grade 3, number of patients: 0
  Musculoskeletal and connective tissue disorders ≥Grade 3, number of patients: 0
  Neoplasms benign, malignant, and unspecified (incl. cysts and polyps) ≥Grade 3, number of patients: 0
  Patients with AEs ≥Grade 3, number of patients: 3
  Penile Pain ≥Grade 3, number of patients: 0
  Platelet count decreased ≥Grade 3, number of patients: 0
  Pneumonia ≥Grade 3, number of patients: 0
  Psychiatric disorders ≥Grade 3, number of patients: 0
  Renal and urinary disorders ≥Grade 3, number of patients: 1
  Reproductive system and breast disorders ≥Grade 3, number of patients: 0
  Respiratory distress ≥Grade 3, number of patients: 0
  Respiratory failure ≥Grade 3, number of patients: 0
  Respiratory, thoracic, and mediastinal disorders ≥Grade 3, number of patients: 1
  Tumor lysis syndrome ≥Grade 3, number of patients: 0
  Vascular disorders ≥Grade 3, number of patients: 0
Monotherapy 60 mg/m^2 (n = 3)
  AML progression, number of patients: 3
  Abdominal Pain ≥Grade 3, number of patients: 0
  Acidosis ≥Grade 3, number of patients: 0
  Acute kidney injury ≥Grade 3, number of patients: 0
  Asthenia ≥Grade 3, number of patients: 0
  Back Pain ≥Grade 3, number of patients: 0
  Blood and lymphatic system disorders ≥Grade 3, number of patients: 0
  Cardiac disorders ≥Grade 3, number of patients: 0
  Cataract ≥Grade 3, number of patients: 0
  Dyspnea ≥Grade 3, number of patients: 0
  Extremity Lower Edema ≥Grade 3, number of patients: 0
  Eye disorders ≥Grade 3, number of patients: 0
  Febrile neutropenia ≥Grade 3, number of patients: 0
  Gastrointestinal disorders ≥Grade 3, number of patients: 0
  General disorders and administration site conditions ≥Grade 3, number of patients: 0
  Hallucinations ≥Grade 3, number of patients: 0
  Heart failure ≥Grade 3, number of patients: 0
  Hepatic failure ≥Grade 3, number of patients: 0
  Hepatobiliary disorders ≥Grade 3, number of patients: 0
  Hypocalcemia ≥Grade 3, number of patients: 0
  Hypoglycemia ≥Grade 3, number of patients: 0
  Hypokalemia ≥Grade 3, number of patients: 0
  Hyponatremia ≥Grade 3, number of patients: 0
  Hypotension ≥Grade 3, number of patients: 0
  Hypovolemia ≥Grade 3, number of patients: 0
  Hypoxia ≥Grade 3, number of patients: 0
  Investigations ≥Grade 3, number of patients: 0
  Leukocytosis ≥Grade 3, number of patients: 0
  Metabolism and nutritional disorders ≥Grade 3, number of patients: 0
  Multi-organ failure ≥Grade 3, number of patients: 0
  Musculoskeletal and connective tissue disorders ≥Grade 3, number of patients: 0
  Neoplasms benign, malignant, and unspecified (incl. cysts and polyps) ≥Grade 3, number of patients: 1
  Patients with AEs ≥Grade 3, number of patients: 1
  Penile Pain ≥Grade 3, number of patients: 0
  Platelet count decreased ≥Grade 3, number of patients: 0
  Pneumonia ≥Grade 3, number of patients: 0
  Psychiatric disorders ≥Grade 3, number of patients: 0
  Renal and urinary disorders ≥Grade 3, number of patients: 0
  Reproductive system and breast disorders ≥Grade 3, number of patients: 0
  Respiratory distress ≥Grade 3, number of patients: 0
  Respiratory failure ≥Grade 3, number of patients: 0
  Respiratory, thoracic, and mediastinal disorders ≥Grade 3, number of patients: 0
  Tumor lysis syndrome ≥Grade 3, number of patients: 0
  Vascular disorders ≥Grade 3, number of patients: 0
Monotherapy 90 mg/m^2 (n = 4)
  AML progression, number of patients: 2
  Abdominal Pain ≥Grade 3, number of patients: 0
  Acidosis ≥Grade 3, number of patients: 0
  Acute kidney injury ≥Grade 3, number of patients: 0
  Asthenia ≥Grade 3, number of patients: 1
  Back Pain ≥Grade 3, number of patients: 0
  Blood and lymphatic system disorders ≥Grade 3, number of patients: 1
  Cardiac disorders ≥Grade 3, number of patients: 0
  Cataract ≥Grade 3, number of patients: 0
  Dyspnea ≥Grade 3, number of patients: 1
  Extremity Lower Edema ≥Grade 3, number of patients: 0
  Eye disorders ≥Grade 3, number of patients: 0
  Febrile neutropenia ≥Grade 3, number of patients: 0
  Gastrointestinal disorders ≥Grade 3, number of patients: 0
  General disorders and administration site conditions ≥Grade 3, number of patients: 1
  Hallucinations ≥Grade 3, number of patients: 0
  Heart failure ≥Grade 3, number of patients: 0
  Hepatic failure ≥Grade 3, number of patients: 0
  Hepatobiliary disorders ≥Grade 3, number of patients: 0
  Hypocalcemia ≥Grade 3, number of patients: 1
  Hypoglycemia ≥Grade 3, number of patients: 0
  Hypokalemia ≥Grade 3, number of patients: 1
  Hyponatremia ≥Grade 3, number of patients: 1
  Hypotension ≥Grade 3, number of patients: 0
  Hypovolemia ≥Grade 3, number of patients: 0
  Hypoxia ≥Grade 3, number of patients: 0
  Investigations ≥Grade 3, number of patients: 1
  Leukocytosis ≥Grade 3, number of patients: 1
  Metabolism and nutritional disorders ≥Grade 3, number of patients: 3
  Multi-organ failure ≥Grade 3, number of patients: 0
  Musculoskeletal and connective tissue disorders ≥Grade 3, number of patients: 0
  Neoplasms benign, malignant, and unspecified (incl. cysts and polyps) ≥Grade 3, number of patients: 0
  Patients with AEs ≥Grade 3, number of patients: 4
  Penile Pain ≥Grade 3, number of patients: 0
  Platelet count decreased ≥Grade 3, number of patients: 1^a
  Pneumonia ≥Grade 3, number of patients: 2
  Psychiatric disorders ≥Grade 3, number of patients: 0
  Renal and urinary disorders ≥Grade 3, number of patients: 0
  Reproductive system and breast disorders ≥Grade 3, number of patients: 0
  Respiratory distress ≥Grade 3, number of patients: 0
  Respiratory failure ≥Grade 3, number of patients: 0
  Respiratory, thoracic, and mediastinal disorders ≥Grade 3, number of patients: 1
  Tumor lysis syndrome ≥Grade 3, number of patients: 0
  Vascular disorders ≥Grade 3, number of patients: 0
[1]
  Dose-limiting Toxicity (DLT): Coagulopathy: No
  Dose-limiting Toxicity (DLT): Confusion: No
  Dose-limiting Toxicity (DLT): Diarrhea: No
  Dose-limiting Toxicity (DLT): Edema (limbs): No
  Dose-limiting Toxicity (DLT): Fever (pyrexia): No
  Dose-limiting Toxicity (DLT): Hyperkalemia: No
  Dose-limiting Toxicity (DLT): Hypocalcemia: No
  Dose-limiting Toxicity (DLT): Hypokalemia: No
  Dose-limiting Toxicity (DLT): Mucositis: No and Yes ^a
  Dose-limiting Toxicity (DLT): Multi-organ failure: No
  Dose-limiting Toxicity (DLT): Nausea: No
  Dose-limiting Toxicity (DLT): Pain: No
  Dose-limiting Toxicity (DLT): Pain in extremity: No
  Dose-limiting Toxicity (DLT): Palmar-plantar erythrodysesthesia (hand and foot) syndrome: Yes ^a
  Dose-limiting Toxicity (DLT): Pruritus: No
  Grade: Coagulopathy (related to study drug): 1
  Grade: Confusion: 1
  Grade: Diarrhea: 1
  Grade: Edema (limbs): 2
  Grade: Fever (pyrexia): 1
  Grade: Hyperkalemia: 2
  Grade: Hypokalemia: 3
  Grade: Mucositis: 2 and 4
  Grade: Multi-organ failure: 5
  Grade: Nausea: 2
  Grade: Pain: 2
  Grade: Pain in extremity: 2
  Grade: Palmar-plantar erythrodysesthesia (hand and foot) syndrome: 3
  Grade: Pruritus: 1
[2]
  Dose-limiting Toxicity (DLT): Blood creatinine increased: No
  Grade: Blood creatinine increased: 2
